Assay results published in patent publication US4782135A (priority 1983, dated 1988).
Read-outs that look alike come from different tables or passages of the source.

Columns and labels:
[1] = system: L1210 mouse leukemia cells; assay: L1210 tube dilution assay; assay type: cell-based; conditions: for ID50: concentration to inhibit L1210 cell growth by 50 percent; for ID90: concentration to inhibit L1210 cell growth by 90 percent
Excerpt: The L1210 tube dilution assay is described in detail in a publication by L. H. Li, et al., Cancer Research 39: 4816 (1979).

equine rhinovirus (ER) = assay type: cell-based
[2] = system: herpes simplex virus (HSV) type 2; assay type: cell-based, herpes simplex virus type 2
P388 leukemia = assay: In vivo P388 mouse leukemia test; design: species or system mice
Excerpt: The P388 mouse leukemia test is described in detail in a publication by G. L. Neil, et. al., Cancer Treatment Reports 63, 1971-1978 (1979).
^a Schedule of Injection: daily intraperitoneal injection for 9 days
following tumor implantation.
^b Median survival time of control animals = 10.3 days.
^a Schedule of injection: Intraperitoneal injection on Day 1, 5, and
9, following Tumor inoculation.
^b Median survival time of Control (no drug) animals: 10.2 days.

[3] = for Solubility in organic solvents: methanol, ethanol, isopropanol, dioxane, ethyl acetate, and chloroform
coxsackie (COX) A21 = assay type: cell-based, coxsackie virus
[4] = system: herpes simplex virus (HSV) type 1; assay type: cell-based, herpes simplex virus type 1
[5] = ML cells infected with equine rhinovirus
[6] = uninfected Vero cells, 50% cell destruction, overnight incubation
[7] = 63 μg/kg/injection, daily i.p. for 9 days
[8] = 63 μg/kg/injection, daily i.p. for 9 days, control 10.3 days
[9] = 125 μg/kg/injection, daily i.p. for 9 days
[10] = 125 μg/kg/injection, daily i.p. for 9 days, control 10.3 days
[11] = 250 μg/kg/injection, daily i.p. for 9 days
[12] = 250 μg/kg/injection, daily i.p. for 9 days, control 10.3 days
[13] = 250 μg/kg/injection, i.p. on Day 1, 5 and 9
[14] = 250 μg/kg/injection, i.p. on Day 1, 5 and 9, control 10.2 days
[15] = 500 μg/kg/injection, daily i.p. for 9 days
[16] = 500 μg/kg/injection, i.p. on Day 1, 5 and 9
[17] = 500 μg/kg/injection, i.p. on Day 1, 5 and 9, control 10.2 days
[18] = 1000 μg/kg/injection, daily i.p. for 9 days
[19] = 1000 μg/kg/injection, i.p. on Day 1, 5 and 9
[20] = 1000 μg/kg/injection, i.p. on Day 1, 5 and 9, control 10.2 days
[21] = 2000 μg/kg/injection, daily i.p. for 9 days
[22] = 2000 μg/kg/injection, i.p. on Day 1, 5 and 9
[23] = 4000 μg/kg/injection, i.p. on Day 1, 5 and 9
[24] = 8000 μg/kg/injection, i.p. on Day 1, 5 and 9
[25] = ML cells infected with coxsackie A21
[26] = uninfected ML cells, 50% cell destruction, overnight incubation
[27] = 30 μg/kg/injection, i.p. on Day 1, 5 and 9
[28] = 60 μg/kg/injection, i.p. on Day 1, 5 and 9
[29] = 120 μg/kg/injection, i.p. on Day 1, 5 and 9

didemnin A
ID50 [1]: 0.019 µg/mL
ID90 [1]: 0.058 µg/mL
Inhibition of growth of L1210 mouse leukemia cells in vitro (words) [1]: inhibit the growth
Ratio (cytotoxic concentration ÷ antiviral concentration), ER virus (equine rhinovirus (ER); ML cells): 17
ID50 Antiviral-ER virus (equine rhinovirus (ER); [5]): 1.5 µg/mL
ID50 Toxicity-Vero cells (Vero cells; [6]): 50 µg/mL
Ratio (cytotoxic concentration ÷ antiviral concentration), HSV-2 virus ([2]; Vero cells): 33
ID50 Antiviral-HSV-2 virus ([2]; Vero cells infected with HSV-2): 1.5 µg/mL
T/C (P388 leukemia; [7]): 104%
Weight Change (P388 leukemia; [7]): +0.9 g
Median Survival Time (P388 leukemia; [8]): 10.7 days
T/C (P388 leukemia; [9]): 115%
Weight Change (P388 leukemia; [9]): +1.4 g
Median Survival Time (P388 leukemia; [10]): 11.9 days
T/C (P388 leukemia; [11]): 119%
Weight Change (P388 leukemia; [11]): +1.0 g
Median Survival Time (P388 leukemia; [12]): 12.2 days
T/C (P388 leukemia; [13]): 109%
Weight Change (P388 leukemia; [13]): +1.7 g
Median Survival Time (P388 leukemia; [14]): 11.1 days
T/C (P388 leukemia; [15]): 129%
Weight Change (P388 leukemia; [15]): +0.9 g
Median Survival Time (P388 leukemia; 500 μg/kg/injection, daily i.p. for 9 days, control 10.3 days): 13.2 days
T/C (P388 leukemia; [16]): 118%
Weight Change (P388 leukemia; [16]): +1.6 g
Median Survival Time (P388 leukemia; [17]): 12.1 days
T/C (P388 leukemia; [18]): 158%
Weight Change (P388 leukemia; [18]): +0.3 g
Median Survival Time (P388 leukemia; 1000 μg/kg/injection, daily i.p. for 9 days, control 10.3 days): 16.2 days
T/C (P388 leukemia; [19]): 118%
Weight Change (P388 leukemia; [19]): +1.8 g
Median Survival Time (P388 leukemia; [20]): 12.1 days
T/C (P388 leukemia; [21]): 155%
Weight Change (P388 leukemia; [21]): -0.2 g
Median Survival Time (P388 leukemia; 2000 μg/kg/injection, daily i.p. for 9 days, control 10.3 days): 16.0 days
T/C (P388 leukemia; [22]): 121%
Weight Change (P388 leukemia; [22]): +2.0 g
Median Survival Time (P388 leukemia; 2000 μg/kg/injection, i.p. on Day 1, 5 and 9, control 10.2 days): 12.4 days
T/C (P388 leukemia; [23]): 130%
Weight Change (P388 leukemia; [23]): +1.3 g
Median Survival Time (P388 leukemia; 4000 μg/kg/injection, i.p. on Day 1, 5 and 9, control 10.2 days): 13.3 days
T/C (P388 leukemia; [24]): 140%
Weight Change (P388 leukemia; [24]): +0.8 g
Median Survival Time (P388 leukemia; 8000 μg/kg/injection, i.p. on Day 1, 5 and 9, control 10.2 days): 14.3 days
Activity in vivo against P388 leukemia in mice (P388 leukemia): active
Solubility in organic solvents [3]: soluble
Solubility in toluene [3]: sparingly soluble
Solubility in water [3]: insoluble
Ratio (cytotoxic concentration ÷ antiviral concentration), cox virus (coxsackie (COX) A21; ML cells): 17
ID50 Antiviral-cox virus (coxsackie (COX) A21; [25]): 1.5 µg/mL
ID50 Toxicity-ML cells (ML cells; [26]): 25 µg/mL
Ratio (cytotoxic concentration ÷ antiviral concentration), HSV-1 virus ([4]; Vero cells): 17
ID50 Antiviral-HSV-1 virus ([4]; Vero cells infected with HSV-1): 3 µg/mL

didemnin B
ID50 [1]: 0.0018 µg/mL
ID90 [1]: 0.0059 µg/mL
Inhibition of growth of L1210 mouse leukemia cells in vitro (words) [1]: inhibit the growth
Inhibition of growth of L1210 mouse leukemia cells in vitro (words) ([1]; listed as didemnin B): inhibit
ID50 Antiviral-ER virus (equine rhinovirus (ER); [5]): < 1.5 µg/mL
ID50 Toxicity-Vero cells (Vero cells; [6]): 12 µg/mL
Ratio (cytotoxic concentration ÷ antiviral concentration), HSV-2 virus ([2]; Vero cells): 8
ID50 Antiviral-HSV-2 virus ([2]; Vero cells infected with HSV-2): 1.5 µg/mL
T/C (P388 leukemia; [27]): 125%
Weight Change (P388 leukemia; [27]): +1.6 g
Median Survival Time (P388 leukemia; 30 μg/kg/injection, i.p. on Day 1, 5 and 9, control 10.2 days): 12.8 days
T/C (P388 leukemia; [28]): 140%
Weight Change (P388 leukemia; [28]): +1.2 g
Median Survival Time (P388 leukemia; 60 μg/kg/injection, i.p. on Day 1, 5 and 9, control 10.2 days): 14.3 days
T/C (P388 leukemia; [7]): 143%
Weight Change (P388 leukemia; [7]): +0.1 g
Median Survival Time (P388 leukemia; [8]): 14.8 days
T/C (P388 leukemia; [29]): 147%
Weight Change (P388 leukemia; [29]): +0.2 g
Median Survival Time (P388 leukemia; 120 μg/kg/injection, i.p. on Day 1, 5 and 9, control 10.2 days): 15.0 days
T/C (P388 leukemia; [9]): 136%
Weight Change (P388 leukemia; [9]): -0.6 g
Median Survival Time (P388 leukemia; [10]): 14.0 days
T/C (P388 leukemia; [11]): 138%
Weight Change (P388 leukemia; [11]): -2.2 g
Median Survival Time (P388 leukemia; [12]): 14.2 days
T/C (P388 leukemia; [13]): 157%
Weight Change (P388 leukemia; [13]): -0.5 g
Median Survival Time (P388 leukemia; [14]): 16.0 days
Weight Change (P388 leukemia; [15]): -3.4 g
T/C (P388 leukemia; [16]): 176%
Weight Change (P388 leukemia; [16]): -1.7 g
Median Survival Time (P388 leukemia; [17]): 18.0 days
T/C (P388 leukemia; [19]): 199%
Weight Change (P388 leukemia; [19]): -3.8 g
Median Survival Time (P388 leukemia; [20]): 20.3 days
Activity in vivo against P388 leukemia in mice (P388 leukemia): active
Solubility in organic solvents [3]: soluble
Solubility in toluene [3]: sparingly soluble
Solubility in water [3]: insoluble
ID50 Antiviral-cox virus (coxsackie (COX) A21; [25]): < 1.5 µg/mL
ID50 Toxicity-ML cells (ML cells; [26]): < 1.5 µg/mL
Ratio (cytotoxic concentration ÷ antiviral concentration), HSV-1 virus ([4]; Vero cells): 8
ID50 Antiviral-HSV-1 virus ([4]; Vero cells infected with HSV-1): 1.5 µg/mL

didemnin C
ID50 Antiviral-ER virus (equine rhinovirus (ER)): < 1.5
Ratio (cytotoxic concentration ÷ antiviral concentration), ER virus (equine rhinovirus (ER)): > 4
ID50 Toxicity-Vero cells (Vero cells): 50
ID50 Antiviral-HSV-2 virus [2]: < 1.5
Ratio (cytotoxic concentration ÷ antiviral concentration), HSV-2 virus [2]: > 33
ID50 Antiviral-cox virus (coxsackie (COX) A21): < 1.5
Ratio (cytotoxic concentration ÷ antiviral concentration), cox virus (coxsackie (COX) A21): > 4
ID50 Toxicity-ML cells (ML cells): 6
ID50 Antiviral-HSV-1 virus [4]: < 1.5
Ratio (cytotoxic concentration ÷ antiviral concentration), HSV-1 virus [4]: > 33
